Key:
[1] = biological target: T1, human recombinant Dipeptidyl peptidase IV enzyme (hrDPP IV) (Homo sapiens, UniProt P27487); test: DPP IV assay, cleavage of H-Gly-Pro-AMC by human recombinant DPP-IV enzyme; type: biochemical; settings: for inhibition at 0.3 µM: 300 nM compound concentration
T1 construct: purchased R&D systems
Method: DPP IV activity was determined by the cleavage rate of 7-amino 4-methylcoumarin (AMC) from the substrate H-Gly-Pro-AMC. In brief, the assay was conducted by adding 3 ng of human recombinant Dipeptidyl peptidase IV enzyme (hrDPP IV, available commercially from R&D systems) in 70 μL of the assay buffer (25 mM HEPES, 140 mM NaCl and 1% BSA, pH 7.8) to a 96 well black flat bottom microtitre plate. Test compounds were added as 10 μL additions to all wells except blank and total activity wells. After incubation of test substance with enzyme for 60 minutes at room temperature, 10 μL of 100 μM substrate H-Gly-Pro-AMC was added. After mixing, the plate was left for 20 minutes at room temperature. Then the reaction was terminated by addition of 10 μL of 25% glacial acetic acid. Fluorescence was measured using Spectra Max Gemini XS (Molecular Devices, USA) at an excitation filter of 360 nm and emission filter of 460 nm.
Test compounds dissolved in DMSO were diluted with assay buffer at different concentrations and tested in duplicates. Percentage inhibition was calculated with respect to total activity. IC50 value was calculated using Prism Software.

T1 sequence (P27487 whole entry): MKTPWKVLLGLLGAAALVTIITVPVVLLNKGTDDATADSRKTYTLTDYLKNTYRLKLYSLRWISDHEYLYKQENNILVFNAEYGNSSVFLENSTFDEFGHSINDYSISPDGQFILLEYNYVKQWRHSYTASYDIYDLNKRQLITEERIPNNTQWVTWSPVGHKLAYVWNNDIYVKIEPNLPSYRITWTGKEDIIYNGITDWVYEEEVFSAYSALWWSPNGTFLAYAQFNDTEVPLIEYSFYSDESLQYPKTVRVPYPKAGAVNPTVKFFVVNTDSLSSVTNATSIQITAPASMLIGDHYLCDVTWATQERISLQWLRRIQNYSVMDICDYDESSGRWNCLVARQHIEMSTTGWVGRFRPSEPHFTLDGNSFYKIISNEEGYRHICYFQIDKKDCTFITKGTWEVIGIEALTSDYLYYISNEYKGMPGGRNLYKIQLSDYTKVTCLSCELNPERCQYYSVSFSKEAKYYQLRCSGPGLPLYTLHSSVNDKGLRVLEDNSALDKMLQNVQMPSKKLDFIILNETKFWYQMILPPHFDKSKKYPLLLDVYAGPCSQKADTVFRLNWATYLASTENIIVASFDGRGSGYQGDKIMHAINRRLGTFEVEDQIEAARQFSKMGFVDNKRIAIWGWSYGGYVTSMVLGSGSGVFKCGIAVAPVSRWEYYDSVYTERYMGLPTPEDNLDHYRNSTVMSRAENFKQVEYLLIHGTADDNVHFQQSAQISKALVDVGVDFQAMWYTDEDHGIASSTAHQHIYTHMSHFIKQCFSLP

Row | inhibition at 0.3 µM [1] [%] | melting point [°C] | IC50 [1] [nM] | SMILES
1 | 15 | 147 to 151 |  | Cc1noc([C@H]2CC[C@@](C)(NCC(=O)N3C[C@@H](F)C[C@H]3C#N)C2(C)C)n1 [Example 50, (2S,4S)-4-Fluoro-1-(2-((1R,3S)-1,2,2-trimethyl-3-(3-methyl-1,2,4-oxadiazol-5-yl)cyclopentylamino)acetyl)pyrrolidine-2-carbonitrile]
2 |  | 84 to 87 | 215 | CC1(C)[C@@H](Cn2nccn2)CC[C@@]1(C)NCC(=O)N1C[C@@H](F)C[C@H]1C#N [Example 10, (2S,4S)-1-(2-((1R,3S)-3-((2H-1,2,3-Triazol-2-yl)methyl)-1,2,2-trimethylcyclopentylamino)acetyl)-4-fluoropyrrolidine-2-carbonitrile]
3 |  | 186 to 188 | 222 ± 56.8 | CC1(C)[C@@H](Cn2cncn2)CC[C@@]1(C)NCC(=O)N1C[C@@H](F)C[C@H]1C#N [Example 1, (2S,4S)-1-(2-((1R,3S)-3-((1H-1,2,4-Triazol-1-yl)methyl)-1,2,2-trimethylcyclopentylamino)acetyl)-4-fluoropyrrolidine-2-carbonitrile]
4 | 64.9 | 121 to 123 |  | Cc1nc(C[C@H]2CC[C@@](C)(NCC(=O)N3C[C@@H](F)C[C@H]3C#N)C2(C)C)no1 [Example 54, (2S,4S)-4-Fluoro-1-(2-((1R,3R)-1,2,2-trimethyl-3-((5-methyl-1,2,4-oxadiazol-3-yl)methyl)cyclopentylamino)acetyl)pyrrolidine-2-carbonitrile]
5 |  | 76 to 78 | 32.5 | CC1(C)[C@H](Cn2cc(CO)nn2)CC[C@]1(C)NCC(=O)N1C[C@@H](F)C[C@H]1C#N [Example 16, (2S,4S)-4-Fluoro-1-(2-((1S,3R)-3-((4-(hydroxymethyl)-1H-1,2,3-triazol-1-yl)methyl)-1,2,2-trimethylcyclopentylamino)acetyl)pyrrolidine-2-carbonitrile]
6 |  | 160 to 163 | 91.4 | Cc1noc([C@@H]2CC[C@](C)(NCC(=O)N3C[C@@H](F)C[C@H]3C#N)C2(C)C)n1 [Example 51, (2S,4S)-4-Fluoro-1-(2-((1S,3R)-1,2,2-trimethyl-3-(3-methyl-1,2,4-oxadiazol-5-yl)cyclopentylamino)acetyl)pyrrolidine-2-carbonitrile]
7 | 79.8 | 158 to 216 |  | CC1(C)[C@H](Cc2noc(-c3ccc(F)cc3)n2)CC[C@]1(C)NCC(=O)N1C[C@@H](F)C[C@H]1C#N [Example 62, (2S,4S)-4-Fluoro-1-(2-((1S,3S)-3-((5-(4-fluorophenyl)-1,2,4-oxadiazol-3-yl)methyl)-1,2,2-trimethylcyclopentylamino)acetyl)pyrrolidine-2-carbonitrile]
8 | 60.5 | 240 to 279 |  | CC1(C)[C@@H](Cn2cc(CO)nn2)CC[C@@]1(C)NCC(=O)N1C[C@@H](F)C[C@H]1C#N [Example 15, (2S,4S)-4-Fluoro-1-(2-((1R,3S)-3-((4-(hydroxymethyl)-1H-1,2,3-triazol-1-yl)methyl)-1,2,2-trimethyleyclopentylamino)acetyl)pyrrolidine-2-carbonitrile]
9 | 91.4 | 152 to 154 |  | CC(C)(C)c1nc(C[C@@H]2CC[C@](C)(NCC(=O)N3C[C@@H](F)C[C@H]3C#N)C2(C)C)no1 [Example 58, (2S,4S)-1-(2-((1S,3S)-3-((5-tert-Butyl-1,2,4-oxadiazol-3-yl)methyl)-1,2,2-trimethylcyclopentylamino)acetyl)-4-fluoropyrrolidine-2-carbonitrile]

Second part, the compound before the results:

Row | SMILES | inhibition at 0.3 µM [1] [%] | melting point [°C] | IC50 [1] [nM]
10 | CC1(C)[C@H](CN2CCCC2)CC[C@]1(C)NCC(=O)N1C[C@@H](F)C[C@H]1C#N [Example 37, (2S,4S)-4-Fluoro-1-(2-((1S,3R)-1,2,2-trimethyl-3-(pyrrolidin-1-ylmethyl)cyclopentylamino)acetyl)pyrrolidine-2-carbonitrile] |  | 123 to 126 | 22.4
11 | CC(C)c1noc([C@]2(C)CC[C@H](NCC(=O)N3C[C@@H](F)C[C@H]3C#N)C2(C)C)n1 [Example 67, (2S,4S)-4-Fluoro-1-(2-((1S,3R)-3-(3-isopropyl-1,2,4-oxadiazol-5-yl)-2,2,3-trimethylcyclopentylamino)acetyl)pyrrolidine-2-carbonitrile] | 79.2 | 82 to 85 | 
12 | CC1(C)[C@@H](CN2CCCS2(=O)=O)CC[C@@]1(C)NCC(=O)N1C[C@@H](F)C[C@H]1C#N [Example 28, (2S,4S)-1-(2-((1R,3S)-3-[(1,1-Dioxidoisothiazolidin-2-yl)methyl]-1,2,2-trimethylcyclopentylamino)acetyl)-4-fluoropyrrolidine-2-carbonitrile] |  | 126 to 128 | 183
13 | CC1(C)[C@@H](CNc2ncccc2C#N)CC[C@@]1(C)NCC(=O)N1C[C@@H](F)C[C@H]1C#N [Example 26, 2-(((1S,3R)-3-(2-((2S,4S)-2-Cyano-4-fluoropyrrolidin-1-yl)-2-oxoethylamino)-2,2,3-trimethylcyclopentyl)methylamino)nicotinonitrile] | 63.2 | 96 to 99 | 
14 | CC1(C)[C@@H](CN2CCCCC2)CC[C@@]1(C)NCC(=O)N1C[C@@H](F)C[C@H]1C#N [Example 39, (2S,4S)-4-Fluoro-1-(2-((1R,3S)-1,2,2-trimethyl-3-(piperidin-1-ylmethyl)cyclopentylamino)acetyl)pyrrolidine-2-carbonitrile] | 45.9 | 100 to 103 | 
15 | CC1(C)[C@@H](CN2CC[C@@H](O)C2)CC[C@@]1(C)NCC(=O)N1C[C@@H](F)C[C@H]1C#N [Example 38, (2S,4S)-4-fluoro-1-(2-((1R,3S)-3-(((R)-3-hydroxypyrrolidin-1-yl)methyl)-1,2,2-trimethylcyclopentylamino)acetyl)pyrrolidine-2-carbonitrile] | 42.6 | 130 to 135 | 
16 | CC1(C)[C@H](CS(=O)(=O)c2ccc(S(C)(=O)=O)cc2)CC[C@]1(C)NCC(=O)N1CCC[C@H]1C#N [Example 46, (S)-1-(2-((1S,3R)-1,2,2-Trimethyl-3-((4-(methylsulfonyl)phenylsulfonyl)methyl)cyclopentylamino)acetyl)pyrrolidine-2-carbonitrile] | 40.9 | 158 to 160 | 
17 | CC1(C)[C@@H](CN2CCCC2)CC[C@@]1(C)NCC(=O)N1C[C@@H](F)C[C@H]1C#N [Example 36, (2S,4S)-4-Fluoro-1-(2-((1R,3S)-1,2,2-trimethyl-3-(pyrrolidin-1-ylmethyl)cyclopentylamino)acetyl)pyrrolidine-2-carbonitrile] | 31.9 | 108 to 112 | 
18 | CC1(C)[C@@H](NCC(=O)N2C[C@@H](F)C[C@H]2C#N)CC[C@@]1(C)CCCn1cncn1 [Example 83, (2S,4S)-1-(2-((1S,3R)-3-(3-(1H-1,2,4-Triazol-1-yl)propyl)-2,2,3-trimethylcyclopentylamino)acetyl)-4-fluoropyrrolidine-2-carbonitrile] | 93.9 | 152 to 154 | 4.03
19 | CC1(C)[C@H](CNC(=O)C2CCC(F)(F)CC2)CC[C@]1(C)NCC(=O)N1C[C@@H](F)C[C@H]1C#N [Example 23, N-(((1R,3S)-3-(2-((2S,4S)-2-Cyano-4-fluoropyrrolidin-1-yl)-2-oxoethylamino)-2,2,3-trimethylcyclopentyl)methyl)-4,4-difluorocyclohexane carboxamide] | 86.2 | 189 to 194 | 
20 | CC1(C)[C@@H](CS(=O)(=O)c2ccc(S(C)(=O)=O)cc2)CC[C@@]1(C)NCC(=O)N1C[C@@H](F)C[C@H]1C#N [Example 42, (2S,4S)-4-Fluoro-1-(2-((1R,3S)-1,2,2-trimethyl-3-((4-(methylsulfonyl)phenylsulfonyl)methyl)cyclopentylamino)acetyl)pyrrolidine-2-carbonitrile] |  | 220 to 224 | 91.3
21 | CC1(C)[C@@H](CNc2ccc(C(F)(F)F)cn2)CC[C@@]1(C)NCC(=O)N1C[C@@H](F)C[C@H]1C#N [Example 27, (2S,4S)-4-Fluoro-1-(2-((1R,3S)-1,2,2-trimethyl-3-((5-(trifluoromethyl)pyridin-2-ylamino)methyl)cyclopentylamino)acetyl)pyrrolidine-2-carbonitrile] | 47.4 | 52 to 58 | 
22 | CC1(C)[C@H](CNS(=O)(=O)c2ccc(F)cc2)CC[C@]1(C)NCC(=O)N1C[C@@H](F)C[C@H]1C#N [Example 20] |  | 75 to 78 | 105
23 | CC1(C)[C@H](NCC(=O)N2C[C@@H](F)C[C@H]2C#N)CC[C@]1(C)c1nc(-c2ccncc2)no1 [Example 71, (2S,4S)-4-Fluoro-1-(2-((1R,3S)-2,2,3-trimethyl-3-(3-(pyridin-4-yl)-1,2,4-oxadiazol-5-yl)cyclopentylamino)acetyl)pyrrolidine-2-carbonitrile] |  | 167 to 171 | 22.8
24 | CC1(C)[C@@H](CS(=O)(=O)c2ccc(S(C)(=O)=O)cc2)CC[C@@]1(C)NCC(=O)N1CCC[C@H]1C#N [Example 44, (S)-1-(2-((1R,3S)-1,2,2-Trimethyl-3-((4-(methylsulfonyl)phenylsulfonyl)methyl)cyclopentylamino)acetyl)pyrrolidine-2-carbonitrile] |  | 162 to 166 | 582

— US8466145B2, “Dipeptidyl peptidase IV inhibitors” (Orchid Chemicals & Pharmaceuticals Limited, priority 2009, dated 2013)
